Data on 7 compounds can be found in PubChem BioAssay (NCI).

Test systems include SF-295 CNS; DU-145 prostate; ACHN renal; UO-31 renal; CCRF-CEM leukemia; CAKI-1 renal; HCT-116 colon; SNB-19 CNS; U251 CNS; MDA-MB-435.
Holding throughout (experiment): NCI tumour cell line growth inhibition, 48 h

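Test compounds were applied to cells in 96-well plates for 48 hours at 5 doses. The concentration for 50% growth inhibition is given as GI50. The concentration for full growth arrest is given as TGI.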 Some results are limits rather than exact numbers.

On to `CCCN1CCC(Oc2cc(Nc3nc(Nc4cccc(F)c4C(N)=O)c4cc[nH]c4n3)c(OC)cc2Cl)CC1`, for which the GI50 in the assay on SF-295 CNS is 3.81 µM; in the assay on DU-145 prostate it was 3.68 µM; in the assay with ACHN renal, 4.01 µM; with UO-31 renal, 2.94 µM; with CCRF-CEM leukemia, 3.45 µM; in the assay on CAKI-1 renal it was 3.58 µM. The GI50 with HCT-116 colon is 2.16 µM; with SNB-19 CNS, 4.18 µM; in the assay with U251 CNS, 1.68 µM; with MDA-MB-435, 1.35 µM. Further, the TGI with SF-295 CNS turned out to be 8.53 µM; in the assay with DU-145 prostate, 7.76 µM; in the assay with ACHN renal it was 7.99 µM; in the assay with UO-31 renal, 8.93 µM; in the assay on CCRF-CEM leukemia it was 10.1 µM; in the assay with CAKI-1 renal it was 7.64 µM. Further, the TGI was determined as 5.5 µM with HCT-116 colon, 8.33 µM with SNB-19 CNS, 5.21 µM in the assay with U251 CNS and 5.32 µM with MDA-MB-435.

As for `CCN(CC)CCN1C(=O)C2C3C(C)=CC(OC(C)=O)(CC3C)C2C1=O` (stereo not given), the GI50 in the assay on SF-295 CNS, in the assay on DU-145 prostate, in the assay with ACHN renal, in the assay on UO-31 renal, in the assay on CCRF-CEM leukemia and in the assay with CAKI-1 renal was above 100 µM in each case. The GI50 in the assay with HCT-116 colon, in the assay on SNB-19 CNS, in the assay on U251 CNS and in the assay with MDA-MB-435 was above 100 µM in each case. In addition, the TGI in the assay on SF-295 CNS, in the assay on DU-145 prostate, in the assay on ACHN renal, with UO-31 renal, with CCRF-CEM leukemia and with CAKI-1 renal was above 100 µM each time. Moreover, the TGI in the assay with HCT-116 colon, in the assay with SNB-19 CNS, with U251 CNS and with MDA-MB-435 was above 100 µM each time.

For the compound `Clc1cccc(-c2cc(-c3ccc4c(c3)OCCO4)[nH]n2)c1`, the GI50 in the assay on SF-295 CNS is 9.71 µM; with DU-145 prostate, 8.74 µM; with ACHN renal, 9.69 µM; with UO-31 renal, 9.27 µM; in the assay on CCRF-CEM leukemia it was 6.99 µM; in the assay on CAKI-1 renal it was 1.61 µM. Moreover, the GI50 is 5.96 µM in the assay on HCT-116 colon, 21.6 µM in the assay on SNB-19 CNS, 6.83 µM with U251 CNS and 0.578 µM in the assay on MDA-MB-435. In addition, the TGI was determined as 45.1 µM in the assay on SF-295 CNS; 38.9 µM in the assay on DU-145 prostate; 41 µM with ACHN renal; 43.9 µM with UO-31 renal; 182 µM with CCRF-CEM leukemia; 36.3 µM in the assay on CAKI-1 renal. The TGI was 40.3 µM with HCT-116 colon, 59.3 µM in the assay with SNB-19 CNS, 43 µM with U251 CNS and 26.1 µM in the assay on MDA-MB-435.

For the compound `Cc1cc[c]([Sb]2[O]C(CO)C(C(O)C(O)C(=O)O)[O]2)cc1` (stereo not given), the GI50 was 61.1 µM in the assay on SF-295 CNS; 38.5 µM in the assay on DU-145 prostate; above 100 µM in the assay with ACHN renal; above 100 µM in the assay on UO-31 renal; above 100 µM in the assay with CCRF-CEM leukemia; above 100 µM in the assay on CAKI-1 renal. The GI50 is 33.7 µM in the assay with HCT-116 colon, 60.6 µM in the assay with SNB-19 CNS, 29.1 µM in the assay on U251 CNS and 81.7 µM in the assay with MDA-MB-435. Further, the TGI in the assay on SF-295 CNS, with DU-145 prostate, with ACHN renal, in the assay on UO-31 renal, in the assay with CCRF-CEM leukemia and in the assay on CAKI-1 renal was above 100 µM each time. Besides, the TGI with HCT-116 colon, with SNB-19 CNS, with U251 CNS and with MDA-MB-435 was above 100 µM throughout.

For `N#Cc1nc2cc(Cl)c(Cl)cc2nc1-c1ccc(Cl)cc1`, the GI50 with SF-295 CNS was 19.6 µM; in the assay on DU-145 prostate, 49.6 µM; in the assay on ACHN renal, 20 µM; in the assay with UO-31 renal, 34.7 µM; in the assay on CCRF-CEM leukemia it was 8.61 µM; in the assay on CAKI-1 renal, 34 µM. Besides, the GI50 in the assay on HCT-116 colon is 15.8 µM; in the assay on SNB-19 CNS it was above 43.4 µM; in the assay with U251 CNS, 19.3 µM; in the assay with MDA-MB-435, above 83.4 µM. In addition, the TGI was 43.1 µM with SF-295 CNS; above 100 µM in the assay with DU-145 prostate; 47.6 µM in the assay with ACHN renal; above 100 µM in the assay with UO-31 renal; 25.7 µM in the assay on CCRF-CEM leukemia; above 66.8 µM in the assay with CAKI-1 renal. For the same compound, the TGI in the assay with HCT-116 colon is 29.9 µM; with SNB-19 CNS, above 60.6 µM; with U251 CNS, 39.3 µM; in the assay on MDA-MB-435, above 100 µM.

For `C/C(=C1\C(=O)Nc2ccccc21)c1cccc(/C(C)=C2/C(=O)Nc3ccccc32)n1`, the GI50 is 18.5 µM with SF-295 CNS; 2.93 µM with DU-145 prostate; 8.56 µM in the assay on ACHN renal; 24.5 µM with UO-31 renal; 6.55 µM in the assay with CCRF-CEM leukemia; 2.34 µM in the assay with CAKI-1 renal. In addition, the GI50 in the assay with HCT-116 colon was 9.93 µM; in the assay with SNB-19 CNS, 23.1 µM; in the assay on U251 CNS, 7.6 µM; in the assay on MDA-MB-435, 2.57 µM. In addition, the TGI in the assay on SF-295 CNS was 85.4 µM; in the assay on DU-145 prostate, above 100 µM; with ACHN renal, 48.1 µM; with UO-31 renal it was above 100 µM; with CCRF-CEM leukemia it was above 100 µM; in the assay on CAKI-1 renal, 24.3 µM. Also, the TGI with HCT-116 colon is above 100 µM; with SNB-19 CNS, above 100 µM; in the assay with U251 CNS, above 100 µM; in the assay with MDA-MB-435, 13.4 µM.

As to `Cc1cc(NC(=O)NCCCOc2ccc(N3C(N)=NC(N)=NC3(C)C)cc2Cl)ccc1S(=O)(=O)F`, the GI50 in the assay on SF-295 CNS is 3.26 µM; in the assay with DU-145 prostate it was 0.786 µM; in the assay on ACHN renal, 11.3 µM; in the assay with UO-31 renal it was above 82.4 µM; in the assay with CCRF-CEM leukemia it was 0.561 µM; with CAKI-1 renal it was above 63.7 µM. The GI50 in the assay on HCT-116 colon was 0.37 µM; with SNB-19 CNS it was 0.92 µM; in the assay with U251 CNS, 0.492 µM; in the assay on MDA-MB-435, 0.577 µM. Moreover, the TGI in the assay with SF-295 CNS was above 100 µM; with DU-145 prostate, above 62.4 µM; in the assay with ACHN renal, above 100 µM; with UO-31 renal, above 100 µM; in the assay with CCRF-CEM leukemia, above 63.5 µM; with CAKI-1 renal it was above 100 µM. In addition, the TGI was above 100 µM in the assay on HCT-116 colon, above 54.7 µM with SNB-19 CNS, 19.7 µM in the assay on U251 CNS and 33.2 µM in the assay with MDA-MB-435.
